According to patent publication US5135943A, “1H-imidazole derivative compounds and pharmaceutical compositions containing the same” (priority 1984, dated 1992):
In brackets after ≈: the same amount, converted by molar mass. Read-outs that look alike come from different tables or passages of the source.

Tests used:
[1] = tested on: C. albicans 15; experiment: MIC, comparative in vitro testing against Martin compounds; type: cell-based; conditions: Casitone medium
Method in brief: (§1)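 Each strain tested in vitro for MIC; time of reading counted from inoculation.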

[2] = tested on: C. albicans 32; experiment: as above; type: cell-based; conditions: YNB medium
Method in brief: as §1

[3] = tested on: C. albicans ATCC E-10231; experiment: as above; type: cell-based; conditions: Casitone medium
Method in brief: as §1

[4] = tested on: C. guillermondii; experiment: as above; type: cell-based
Method in brief: as §1

[5] = tested on: C. parapsilosis 19; experiment: as above; type: cell-based
Method in brief: as §1

[6] = tested on: C. stellatoidea 36232; experiment: as above; type: cell-based
Method in brief: as §1

[7] = tested on: 16 microorganisms; experiment: Geometric mean of all MIC measurements, comparative in vitro testing; type: cell-based; conditions: for MIC: read-out: Geometric means of MIC
Protocol: Minimum Inhibitory Concentrations (MICS) of Sertaconazole were also measured in comparison to four of the compounds described in the Martin Patent, including a compound, referred to herein as Martin Compound 1, which has the same structure as Sertaconazole, expect that the sulfur in the benzothiophene ring is replaced by an oxygen.
The results of comparative in vitro testing of Sertaconazole and these four Martin compounds are shown in the following Table II against 16 microorganisms. The reading time is the time interval from the time of inoculation to the time of measurement.

[8] = tested on: Trichophyton mcntagrophytes; experiment: Dermal infection in albino female guinea pigs by Trichophyton mentagrophytes; type: in vivo, guinea pig; conditions: for % microbiological healing / Negative Cultures to Total Cultures: 2% cream
Source text: A number of compounds with antimycotic and/or fungicidal properties, which are useful in pharmaceutical compositions, are currently known. These include the commercially successful Miconazole having the formula II [drawing 2] Miconazole has a structure chemically similar to the 1H-imidazole derivative compounds of the invention. Miconazole is effective against a number of yeasts, dermatophytes and fungi. This effectiveness can be measured by culturing these microorganisms in vitro and applying a preparation containing the antimycotic compound, Miconazole. The results of this type of in vitro experiment is expressed in terms of the Minimum Inhibitory Concentration (MIC), i.e. the minimum concentration which inhibits the growth of the microorganism. For example, the MIC for Miconazole against a particular Candida albicans strain is found to be 10.7 micrograms/milliliter. The effectiveness of Miconazole as an antimycotic compound is measured in vivo by applying a suspension containing the drug to the skin of a number of animals and measuring the proportion of animals on which growth of the microorganism is inhibited as a function of time. Typically, after 25 days, about 1/4 of the animals were cured, when treated with a cream containing 2 % by weight Miconazole. Of course, any pharmaceutical preparation for treating a disease in a human must satisfy certain toxicity requirements. […] Toxicity tests have been performed on the IH-imidazole derivative compounds of the invention and on Miconazole and other known compounds having antimycotic properties. In toxicity tests the LD50 (the dose at which 50 % mortality occurs) is measured.
Dermal infection in albino female guinea pigs by Trichophyton mcntagrophytes has been studied. Animals were distributed in three groups: a) a control group of infected untreated animals; b) a scrtaconazole group of infected and treated animals; and c) a miconazole group of infected and treated animals. Animals were depleted and a 0.4 ml suspension of the microorganism was applied on the depleted area. Treatment with each of the test drugs was made by application of 1 g of 2% cream on the depleted area on the 4th, 5th and 6th day after infection.

[9] = Safe dosage based on the toxicity findings; conditions: in vivo
Protocol: In a study of prolonged subacute toxicity of Miconazole in rats, among other effects, significant hepatomegalias in females with a dosage of under 30 mg/kg p.o. and in males with a dosage of under 60 mg/kg p.o. were observed.
Based on these finds a safe dosage for Miconazole is about 10 mg/kg, while a safe dosage for Sertaconzole is about 150 mg/kg, i.e about 15 times higher.

[10] = tested on: cutaneous mycosis; experiment: Randomized double blind clinical trials, cutaneous mycosis; conditions: 2 % cream (nitrate salts)
Protocol: Human clinical trials were performed with Sertaconazole nitrate and Miconazole nitrate acid addition salts. Randomized double blind trials were carried out with 502 patients suffering from cutaneous mycosis as confirmed by microscopic examination and microbiological culture. 247 patients were treated with 2 % Sertaconazole cream and the remaining 255 patients were treated with 2 % Miconazole cream. All patients received scheduled treatment for 28 days and were followed up for an additional 28 days for possible relapses.

[11] = Comparison of acute toxicity of Sertaconazole and Miconazole (Table IV); type: in vivo
Protocol: Oral, intraperitoneal and subcutaneous acute toxicity of sertaconazole and miconazole have been investigated. LD50 in mouse and rat, male and female, were measured.

With `Clc1ccc(C(Cn2ccnc2)OCc2csc3c(Cl)cccc23)c(Cl)c1` (stereo not drawn) [Sertaconazole] the MIC ([1]; Candida albicans, 15, 48 h, reading time 48 h, SZ vs M2) was 0.06 µg/mL (≈ 0.137 µM), the MIC ([1]; Candida albicans, 15, 48 h, reading time 48 h, SZ vs M3) was 0.03 µg/mL (≈ 0.0685 µM) and the MIC ([1]; Candida albicans, 15, 48 h, reading time 48 h, SZ vs M4) was 0.03 µg/mL (≈ 0.0685 µM). For the same compound, the MIC ([1]; Candida albicans, 15, 60 h, reading time 60 h, SZ vs M1) was 0.5 µg/mL (≈ 1.14 µM), the MIC ([2]; Candida albicans, 32, reading time 48 h, SZ vs M2, read-out: MIC) was 4 µg/mL (≈ 9.14 µM) and the MIC ([2]; Candida albicans, 32, reading time 60 h, SZ vs M1, read-out: MIC) was 8 µg/mL (≈ 18.3 µM). The MIC ([2]; reading time 48 h, SZ vs M3) was 4 µg/mL (≈ 9.14 µM), the MIC ([2]; reading time 48 h, SZ vs M4) was 4 µg/mL (≈ 9.14 µM) and the MIC ([3]; Candida albicans, ATCCE10231, reading time 48 h, SZ vs M2, read-out: MIC) was 0.5 µg/mL (≈ 1.14 µM). For the same compound, the MIC ([3]; Candida albicans, ATCCE10231, reading time 60 h, SZ vs M1, read-out: MIC) was 1 µg/mL (≈ 2.28 µM), the MIC ([3]; reading time 48 h, SZ vs M3) was 0.5 µg/mL (≈ 1.14 µM) and the MIC ([3]; reading time 48 h, SZ vs M4) was 0.5 µg/mL (≈ 1.14 µM). It also gave an MIC ([4]; 48 h) of 0.125 µg/mL (≈ 0.286 µM), an MIC ([4]; 48 h, Casitone medium, reading time 48 h, SZ vs M2, read-out: MIC) of 0.25 µg/mL (≈ 0.571 µM) and an MIC ([4]; 48 h, Casitone medium, reading time 48 h, SZ vs M3, read-out: MIC) of 0.25 µg/mL (≈ 0.571 µM). The MIC ([4]; 48 h, Casitone medium, reading time 48 h, SZ vs M4, read-out: MIC) was 0.25 µg/mL (≈ 0.571 µM), the MIC ([4]; 48 h, YNB medium, reading time 48 h, SZ vs M2, read-out: MIC) was 0.25 µg/mL (≈ 0.571 µM) and the MIC ([4]; 60 h, Casitone medium, reading time 60 h, SZ vs M1, read-out: MIC) was 0.5 µg/mL (≈ 1.14 µM). The MIC ([4]; 60 h, YNB medium, reading time 60 h, SZ vs M1, read-out: MIC) was 0.25 µg/mL (≈ 0.571 µM), the MIC ([4]; YNB medium, reading time 48 h, SZ vs M4) was 0.125 µg/mL (≈ 0.286 µM) and the MIC ([5]; 19, 48 h, Sabouraud medium, reading time 48 h, SZ vs M2) was 0.25 µg/mL (≈ 0.571 µM). For the same compound, the MIC ([5]; 19, 48 h, Sabouraud medium, reading time 48 h, SZ vs M3) was 0.25 µg/mL (≈ 0.571 µM), the MIC ([5]; 19, 48 h, Sabouraud medium, reading time 48 h, SZ vs M4) was 0.25 µg/mL (≈ 0.571 µM) and the MIC ([5]; 19, 48 h, YNB medium, reading time 48 h, SZ vs M2) was 0.25 µg/mL (≈ 0.571 µM). For the same compound, the MIC ([5]; 19, 48 h, YNB medium, reading time 48 h, SZ vs M3) was 0.5 µg/mL (≈ 1.14 µM), the MIC ([5]; 19, 48 h, YNB medium, reading time 48 h, SZ vs M4) was 0.5 µg/mL (≈ 1.14 µM) and the MIC ([5]; 19, 60 h, Sabouraud medium, reading time 60 h, SZ vs M1) was 1 µg/mL (≈ 2.28 µM). It also gave an MIC ([5]; 19, 60 h, YNB medium, reading time 60 h, SZ vs M1) of 0.5 µg/mL (≈ 1.14 µM), an MIC ([6]; Candida albicans, 36232, 48 h, Casitone medium, reading time 48 h, SZ vs M2) of 0.06 µg/mL (≈ 0.137 µM) and an MIC ([6]; Candida albicans, 36232, 48 h, Casitone medium, reading time 48 h, SZ vs M3) of 0.06 µg/mL (≈ 0.137 µM). For the same compound, the MIC ([6]; Candida albicans, 36232, 48 h, Casitone medium, reading time 48 h, SZ vs M4) was 0.06 µg/mL (≈ 0.137 µM), the MIC ([6]; Candida albicans, 36232, 48 h, Sabouraud medium, reading time 48 h, SZ vs M2) was 0.25 µg/mL (≈ 0.571 µM) and the MIC ([6]; Candida albicans, 36232, 48 h, Sabouraud medium, reading time 48 h, SZ vs M3) was 0.5 µg/mL (≈ 1.14 µM). The MIC ([6]; Candida albicans, 36232, 48 h, Sabouraud medium, reading time 48 h, SZ vs M4) was 0.5 µg/mL (≈ 1.14 µM), the MIC ([6]; Candida albicans, 36232, 48 h, YNB medium, reading time 48 h, SZ vs M2) was 1 µg/mL (≈ 2.28 µM) and the MIC ([6]; Candida albicans, 36232, 48 h, YNB medium, reading time 48 h, SZ vs M3) was 0.5 µg/mL (≈ 1.14 µM). For the same compound, the MIC ([6]; Candida albicans, 36232, 48 h, YNB medium, reading time 48 h, SZ vs M4) was 0.5 µg/mL (≈ 1.14 µM), the MIC ([6]; Candida albicans, 36232, 60 h, Casitone medium, reading time 60 h, SZ vs M1) was 0.25 µg/mL (≈ 0.571 µM) and the MIC ([6]; Candida albicans, 36232, 60 h, Sabouraud medium, reading time 60 h, SZ vs M1) was 1 µg/mL (≈ 2.28 µM). It also gave an MIC ([6]; Candida albicans, 36232, 60 h, YNB medium, reading time 60 h, SZ vs M1) of 4 µg/mL (≈ 9.14 µM), an MIC ([7]; 48 h, SZ vs M2, reading time 48 h) of 0.366 µg/mL (≈ 0.836 µM) and an MIC ([7]; 48 h, SZ vs M3, reading time 48 h) of 0.336 µg/mL (≈ 0.768 µM). For the same compound, the MIC ([7]; 48 h, SZ vs M4, reading time 48 h) was 0.336 µg/mL (≈ 0.768 µM), the MIC ([7]; 60 h, SZ vs M1, reading time 60 h) was 0.876 µg/mL (≈ 2 µM) and the “Increase of Sertaconazole activity” value ([7]; relative to Martin Compound 1) was 24%. For the same compound, the “Increase of Sertaconazole activity” value ([7]; relative to Martin Compound 2) was 54%, the “Increase of Sertaconazole activity” value ([7]; relative to Martin Compound 3) was 16% and the “Increase of Sertaconazole activity” value ([7]; relative to Martin Compound 4) was 54%. For the same compound, the “% microbiological healing” value ([8]; 18 days postinfection) was 56%, the “Negative Cultures to Total Cultures” value ([8]; 18 days postinfection) was 27/48 and the “% microbiological healing” value ([8]; 25 days postinfection) was 75%. For the same compound, the “Negative Cultures to Total Cultures” value ([8]; 25 days postinfection) was 36/48, the “% microbiological healing” value ([8]; 32 days postinfection) was 84% and the “Negative Cultures to Total Cultures” value ([8]; 32 days postinfection) was 40/48. The “activity higher than Miconazole” value ([8]; 18th day postinfection) was 9 times, the “activity higher than Miconazole” value ([8]; 25th day postinfection) was 2.7 times and the “activity higher than Miconazole” value ([8]; 32nd day postinfection) was 1.9 times. For the same compound, the “safe dosage higher than that of Miconazole” value [9] was “about 15 times”, the NOAEL ([9]; rat) was about 150 mg/kg and the “side effects (contact dermatitis)” value [10] was “no such side effects”. For the same compound, the “more effective than Miconazole” value ([10]; 28 days treatment) was 20.8%, the “acute toxicity relative to Miconazole” value ([11]; oral and intraperitoneal routes) was “an order of magnitude less toxic” and the “acute toxicity relative to Miconazole” value ([11]; subcutaneous) was “significantly less”.
